# Patent publication US20240218022A1, “ANTI-VISTA MACROCYCLIC PEPTIDES AND COMPOSITIONS” (BRISTOL-MYERS SQUIBB COMPANY, priority 2022, published 2024)
# Like-named read-outs stand apart in the source and are kept apart here. Starred links: 1 amine or outer side, 2 acyl side, 3 side chain; linkers in the order of their positions; H or OH if unused. Positions of bridges follow the written chain, without caps; N, C: chain ends. Non-standard residues stand in square brackets, D forms with d. Residues, ends and D or L forms follow the SMILES beside them. ξ: configuration not given here. γGlu = O=C(O)[C@H](CCC(=O)[*:2])N[*:1]; NMeThr(3ξ) = CN[C@H](C(=O)O)C(C)O; Cit = NC(=O)NCCC[C@H](N)C(=O)O; Ahp(2) = CCCCC[C@H](N)C(=O)O; NMeNle = CCCC[C@H](NC)C(=O)O; Tle = CC(C)(C)[C@H](N)C(=O)O; NMeV = CN[C@H](C(=O)O)C(C)C; NHexGly = CCCCCCNCC(=O)O; Nle = CCCC[C@H](N)C(=O)O; Orn = NCCC[C@H](N)C(=O)O; Aun = NCCCCCCCCCCC(=O)O; AEEA = NCCOCCOCC(=O)O
# Biological target: T1, mouse VISTA (mVISTA) (Mus musculus, UniProt Q9D659)
# T1 construct: expressed in transfected cells; host or cells: Human embryonic kidney 293T cells
# T1 sequence (Q9D659 33-308): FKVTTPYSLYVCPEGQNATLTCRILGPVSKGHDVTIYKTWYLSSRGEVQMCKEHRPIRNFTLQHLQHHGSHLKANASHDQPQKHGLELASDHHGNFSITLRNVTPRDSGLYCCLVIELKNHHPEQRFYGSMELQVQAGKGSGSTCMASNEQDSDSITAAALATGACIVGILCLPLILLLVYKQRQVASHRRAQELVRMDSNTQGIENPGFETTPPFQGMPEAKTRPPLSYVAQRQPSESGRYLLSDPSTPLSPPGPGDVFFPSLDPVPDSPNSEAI
# Test: Cell-Based Binding High-Content Assay For mVISTA (HC CBA mVISTA)
# How it was run: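 Read-out: Alexa 647–streptavidin signal imaged on fixed, Hoechst-stained mVISTA-293T cells, with IC50 taken from a four-parameter logistic curve. Compounds competed with 2 nM biotinylated peptide for 30 min at room temperature, tested under both no-wash and wash (1 h compound, media exchange, 1 h) formats.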
# [1] = cell-based binding high-content assay, read-out: HC CBA miPrISTA IC50
Compound,IC50 (read-out: HC CBA mVISTA IC50) [nM],IC50 [1] [nM]
CCCCCCN1CC(=O)N[C@@H](Cc2ccc(O)cc2)C(=O)N[C@@H](CC(C)C)C(=O)N[C@@H](CC(N)=O)C(=O)N[C@@H](CCCNC(=N)N)C(=O)N(C)[C@@H](C(C)O)C(=O)N[C@@H](CCCCC)C(=O)N2CCC[C@H]2C(=O)N[C@@H](C(C)(C)C)C(=O)N[C@@H](CC(=O)O)C(=O)N[C@H](C(=O)NCCOCCOCC(=O)N[C@@H](CCC(=O)NCCOCCOCC(=O)NCCCCCCCCCCC(=O)O)C(=O)O)CSCC(=O)N[C@@H](Cc2ccccc2)C(=O)N[C@@H](Cc2ccc(O)cc2)C(=O)N[C@@H](CC(=O)O)C1=O (stereo partly shown) [compound 2275] ({CH2CO}-FYD[NHexGly]YLNR[NMeThr(3ξ)][Ahp(2)]P[Tle]DC[AEEA][γGlu][AEEA][Aun]-OH; thioether N-14),31.8,–
CCCCCCN1CC(=O)N[C@@H](Cc2ccc(O)cc2)C(=O)N[C@@H](CC(C)C)C(=O)N[C@@H](CC(N)=O)C(=O)N[C@@H](CCCNC(=N)N)C(=O)N(C)[C@@H](C(C)C)C(=O)N[C@@H](CCCCC)C(=O)N2CCC[C@H]2C(=O)N[C@@H](C(C)(C)C)C(=O)N[C@@H](CC(=O)O)C(=O)N[C@H](C(=O)NCCOCCOCC(=O)N[C@@H](CCC(=O)NCCOCCOCC(=O)NCCCCCCCCCCC(=O)O)C(=O)O)CSCC(=O)N[C@@H](Cc2ccccc2)C(=O)N[C@@H](Cc2c[nH]c3ccccc23)C(=O)N[C@@H](CC(=O)O)C1=O [compound 2276] ({CH2CO}-FWD[NHexGly]YLNR[NMeV][Ahp(2)]P[Tle]DC[AEEA][γGlu][AEEA][Aun]-OH; thioether N-14),30,–
CCCCCCN1CC(=O)N[C@@H](Cc2ccc(O)cc2)C(=O)N[C@@H](CC(C)C)C(=O)N[C@@H](CC(N)=O)C(=O)N[C@@H](CCCNC(=N)N)C(=O)N(C)[C@@H](CCCC)C(=O)N[C@@H](CCCCC)C(=O)N2CCC[C@H]2C(=O)N[C@@H](C(C)(C)C)C(=O)N[C@@H](C(C)C)C(=O)N[C@H](C(=O)NCCOCCOCC(=O)N[C@@H](CCC(=O)NCCOCCOCC(=O)NCCCCCCCCCCC(=O)O)C(=O)O)CSCC(=O)N[C@@H](Cc2ccccc2)C(=O)N[C@@H](Cc2ccc(O)cc2)C(=O)N[C@@H](CC(=O)O)C1=O [compound 2277] ({CH2CO}-FYD[NHexGly]YLNR[NMeNle][Ahp(2)]P[Tle]VC[AEEA][γGlu][AEEA][Aun]-OH; thioether N-14),21.2,–
CCCCCCN1CC(=O)N[C@@H](Cc2ccc(O)cc2)C(=O)N[C@@H](CC(C)C)C(=O)N[C@@H](CC(N)=O)C(=O)N[C@@H](CCCN)C(=O)N(C)[C@@H](CCCC)C(=O)N[C@@H](CCCCC)C(=O)N2CCC[C@H]2C(=O)N[C@@H](C(C)(C)C)C(=O)N[C@@H](CO)C(=O)N[C@H](C(=O)NCCOCCOCC(=O)N[C@@H](CCC(=O)NCCOCCOCC(=O)NCCCCCCCCCCC(=O)O)C(=O)O)CSCC(=O)N[C@@H](Cc2ccccc2)C(=O)N[C@@H](Cc2ccc(O)cc2)C(=O)N[C@@H](CC(=O)O)C1=O [compound 2278] ({CH2CO}-FYD[NHexGly]YLN[Orn][NMeNle][Ahp(2)]P[Tle]SC[AEEA][γGlu][AEEA][Aun]-OH; thioether N-14),28.2,–
CCCCCCN1CC(=O)N[C@@H](Cc2ccc(O)cc2)C(=O)N[C@@H](CC(C)C)C(=O)N[C@@H](CC(N)=O)C(=O)N[C@@H](CCCN)C(=O)N(C)[C@@H](CCCC)C(=O)N[C@@H](CCCCC)C(=O)N2CCC[C@H]2C(=O)N[C@@H](C(C)(C)C)C(=O)N[C@@H](C(C)C)C(=O)N[C@H](C(=O)NCCOCCOCC(=O)N[C@@H](CCC(=O)NCCOCCOCC(=O)NCCCCCCCCCCC(=O)O)C(=O)O)CSCC(=O)N[C@@H](Cc2ccccc2)C(=O)N[C@@H](Cc2ccc(O)cc2)C(=O)N[C@@H](CC(=O)O)C1=O [compound 2279] ({CH2CO}-FYD[NHexGly]YLN[Orn][NMeNle][Ahp(2)]P[Tle]VC[AEEA][γGlu][AEEA][Aun]-OH; thioether N-14),28.6,–
CCCCCCN1CC(=O)N[C@@H](Cc2ccc(O)cc2)C(=O)N[C@@H](CC(C)C)C(=O)N[C@@H](CC(N)=O)C(=O)N[C@@H](CCCN)C(=O)N(C)[C@@H](CCCC)C(=O)N[C@@H](CCCCC)C(=O)N2CCC[C@H]2C(=O)N[C@@H](C(C)(C)C)C(=O)N[C@@H](CO)C(=O)N[C@H](C(=O)NCCOCCOCC(=O)N[C@@H](CCC(=O)NCCOCCOCC(=O)NCCCCCCCCCCC(=O)O)C(=O)O)CSCC(=O)N[C@@H](Cc2ccccc2)C(=O)N[C@@H](Cc2c[nH]c3ccccc23)C(=O)N[C@@H](CC(=O)O)C1=O [compound 2280] ({CH2CO}-FWD[NHexGly]YLN[Orn][NMeNle][Ahp(2)]P[Tle]SC[AEEA][γGlu][AEEA][Aun]-OH; thioether N-14),45.5,–
CCCCCCN1CC(=O)N[C@@H](Cc2ccc(O)cc2)C(=O)N[C@@H](CC(C)C)C(=O)N[C@@H](CC(N)=O)C(=O)N[C@@H](CCCNC(=N)N)C(=O)N(C)[C@@H](CCCC)C(=O)N[C@@H](CCCCC)C(=O)N2CCC[C@H]2C(=O)N[C@@H](C(C)(C)C)C(=O)N[C@@H](C(C)C)C(=O)N[C@H](C(=O)NCCOCCOCC(=O)N[C@@H](CCC(=O)NCCOCCOCC(=O)NCCCCCCCCCCC(=O)O)C(=O)O)CSCC(=O)N[C@@H](Cc2ccccc2)C(=O)N[C@@H](Cc2c[nH]c3ccccc23)C(=O)N[C@@H](CC(=O)O)C1=O [compound 2281] ({CH2CO}-FWD[NHexGly]YLNR[NMeNle][Ahp(2)]P[Tle]VC[AEEA][γGlu][AEEA][Aun]-OH; thioether N-14),31.3,–
CCCCCCN1CC(=O)N[C@@H](Cc2ccc(O)cc2)C(=O)N[C@@H](CC(C)C)C(=O)N[C@@H](CC(N)=O)C(=O)N[C@@H](CCCN)C(=O)N(C)[C@@H](CCCC)C(=O)N[C@@H](CCCCC)C(=O)N2CCC[C@H]2C(=O)N[C@@H](C(C)(C)C)C(=O)N[C@@H](C(C)C)C(=O)N[C@H](C(=O)NCCOCCOCC(=O)N[C@@H](CCC(=O)NCCOCCOCC(=O)NCCCCCCCCCCC(=O)O)C(=O)O)CSCC(=O)N[C@@H](Cc2ccccc2)C(=O)N[C@@H](Cc2c[nH]c3ccccc23)C(=O)N[C@@H](CC(=O)O)C1=O [compound 2282] ({CH2CO}-FWD[NHexGly]YLN[Orn][NMeNle][Ahp(2)]P[Tle]VC[AEEA][γGlu][AEEA][Aun]-OH; thioether N-14),34.9,–
CCCCCCN1CC(=O)N[C@@H](Cc2ccc(O)cc2)C(=O)N[C@@H](CC(C)C)C(=O)N[C@@H](CC(N)=O)C(=O)N[C@@H](CCCN)C(=O)N(C)[C@@H](CCCC)C(=O)N[C@@H](CCCCC)C(=O)N2CCC[C@H]2C(=O)N[C@@H](C(C)(C)C)C(=O)N[C@@H](CC(=O)O)C(=O)N[C@H](C(=O)NCCOCCOCC(=O)N[C@@H](CCC(=O)NCCOCCOCC(=O)NCCCCCCCCCCC(=O)O)C(=O)O)CSCC(=O)N[C@@H](Cc2ccccc2)C(=O)N[C@@H](Cc2c[nH]c3ccccc23)C(=O)N[C@@H](CC(=O)O)C1=O [compound 2283] ({CH2CO}-FWD[NHexGly]YLN[Orn][NMeNle][Ahp(2)]P[Tle]DC[AEEA][γGlu][AEEA][Aun]-OH; thioether N-14),27.8,–
CCCCCCN1CC(=O)N[C@@H](Cc2ccc(O)cc2)C(=O)N[C@@H](CC(C)C)C(=O)N[C@@H](CC(N)=O)C(=O)N[C@@H](CCCNC(=N)N)C(=O)N[C@@H](CC(C)C)C(=O)N[C@@H](CCCCC)C(=O)N2CCC[C@H]2C(=O)N[C@@H](C(C)C)C(=O)N[C@@H](CO)C(=O)N[C@H](C(=O)NCCOCCOCC(=O)N[C@@H](CC(=O)O)C(=O)NCCOCCOCC(=O)NCCCCCCCCCCC(=O)O)CSCC(=O)N[C@@H](Cc2ccccc2)C(=O)N[C@@H](Cc2ccc(O)cc2)C(=O)N[C@@H](CC(=O)O)C1=O [compound 2285] ({CH2CO}-FYD[NHexGly]YLNRL[Ahp(2)]PVSC[AEEA]D[AEEA][Aun]-OH; thioether N-14),–,15.2
CCCCCCN1CC(=O)N[C@@H](Cc2ccc(O)cc2)C(=O)N[C@@H](CCCCC)C(=O)NCC(=O)N[C@@H](CCCNC(=N)N)C(=O)N[C@@H](CC(C)C)C(=O)N[C@@H](CCCCC)C(=O)N2CCC[C@H]2C(=O)N[C@@H](C(C)C)C(=O)N[C@@H](CO)C(=O)N[C@H](C(=O)NCCOCCOCC(=O)N[C@@H](CC(=O)O)C(=O)NCCOCCOCC(=O)NCCCCCCCCCCC(=O)O)CSCC(=O)N[C@@H](Cc2ccccc2)C(=O)N[C@@H](Cc2ccc(O)cc2)C(=O)N[C@@H](CC(=O)O)C1=O [compound 2292] ({CH2CO}-FYD[NHexGly]Y[Ahp(2)]GRL[Ahp(2)]PVSC[AEEA]D[AEEA][Aun]-OH; thioether N-14),–,18.2
CCCCCCN1CC(=O)N[C@@H](Cc2ccc(O)cc2)C(=O)N[C@@H](CCCC)C(=O)N[C@@H](CC(N)=O)C(=O)N[C@@H](CCCNC(=N)N)C(=O)N(C)[C@@H](CCCC)C(=O)N[C@@H](CCCCC)C(=O)N2CCC[C@H]2C(=O)N[C@@H](C(C)C)C(=O)N[C@@H](CC(=O)O)C(=O)N[C@H](C(=O)NCCOCCOCC(=O)N[C@@H](CC(=O)O)C(=O)NCCOCCOCC(=O)NCCCCCCCCCCC(=O)O)CSCC(=O)N[C@@H](Cc2ccccc2)C(=O)N[C@@H](Cc2c[nH]c3ccccc23)C(=O)N[C@@H](CC(=O)O)C1=O [compound 2293] ({CH2CO}-FWD[NHexGly]Y[Nle]NR[NMeNle][Ahp(2)]PVDC[AEEA]D[AEEA][Aun]-OH; thioether N-14),–,25.7
CCCCCCN1CC(=O)N[C@@H](Cc2ccc(O)cc2)C(=O)N[C@@H](CCCCC)C(=O)NCC(=O)N[C@@H](CCCNC(N)=O)C(=O)N[C@@H](CC(C)C)C(=O)N[C@@H](CCCCC)C(=O)N2CCC[C@H]2C(=O)N[C@@H](C(C)C)C(=O)N[C@@H](CO)C(=O)N[C@H](C(=O)NCCOCCOCC(=O)N[C@@H](CC(=O)O)C(=O)NCCOCCOCC(=O)NCCCCCCCCCCC(=O)O)CSCC(=O)N[C@@H](Cc2ccccc2)C(=O)N[C@@H](Cc2ccc(O)cc2)C(=O)N[C@@H](CC(=O)O)C1=O [compound 2307] ({CH2CO}-FYD[NHexGly]Y[Ahp(2)]G[Cit]L[Ahp(2)]PVSC[AEEA]D[AEEA][Aun]-OH; thioether N-14),–,21.2
